Key:
Rat [1] = test: concentration in plasma after dosing; details: 3 h; dosed: Primidone; 30 mg/kg; oral; Male; F344
Rat [2] = test: concentration in plasma after dosing; details: 12 h; dosed: Primidone; 130 mg/kg; oral; Male; Harlan Sprague Dawley
Rat [3] = test: concentration in plasma after dosing; details: 0.5 h; dosed: Primidone; 80 mg/kg; oral; Female; Harlan Sprague-Dawley
Rat [4] = test: concentration in plasma after dosing; details: 9 h; dosed: Primidone; 130 mg/kg; oral; Male; F344
Mouse [5] = test: concentration in plasma after dosing; details: 2 h; dosed: 2-Hydroxy-4-methoxybenzophenone; 50 mg/kg; iv; Male; B6C3F1
Mouse [6] = test: concentration in plasma after dosing; details: 0.25 h; dosed: 2-Hydroxy-4-methoxybenzophenone; 250 mg/kg; oral; Male; B6C3F1
Rat [7] = test: concentration in plasma after dosing; details: dosed: 2-Hydroxy-4-methoxybenzophenone, 250 mg/kg, oral, Female, F344
rat [8] = test: concentration in expired air after dosing; negative times count back from the end of exposure; details: dosed: 1,1-dichloroethylene, inhalation, duration: 3 hr, male, Sprague-Dawley
Rat [9] = test: concentration in plasma after dosing; details: dosed: Methyleugenol, 37 mg/kg, oral, Female, F344/N
Rat [10] = test: concentration in plasma after dosing; details: dosed: Methyleugenol, 37 mg/kg, oral, Male, F344/N
Rat [11] = test: concentration in brain after dosing; details: 6 h; dosed: alpha-Thujone; 25 mg/kg; oral; Male; Harlan Sprague Dawley
Rat [12] = test: concentration in brain after dosing; details: 5 min; dosed: alpha-Thujone; 25 mg/kg; oral; Male; Harlan Sprague Dawley
Rat [13] = test: concentration in brain after dosing; details: 2.5 h; dosed: 76231-76-0; 3.0 mg/kg; iv; Female; F344
Rat [14] = test: concentration in kidney after dosing; details: 6 h; dosed: Perfluorohexane-1-sulphonic acid – potassium salt; 16 mg/kg; oral; Female; Harlan Sprague Dawley
Rat [15] = test: concentration in kidney after dosing; details: 96 h; dosed: Perfluorohexane-1-sulphonic acid – potassium salt; 16 mg/kg; oral; Female; Harlan Sprague Dawley
Rat [16] = test: concentration in plasma after dosing; details: 20 min; dosed: Pyridine; 10 mg/kg; iv; Male; F344
Rat [17] = test: concentration in plasma after dosing; details: 10 min; dosed: Pyridine; 10 mg/kg; oral; Male; F344
Rat [18] = test: concentration in plasma after dosing; details: 2 min; dosed: Pyridine; 10 mg/kg; iv; Male; F344

CCC1(c2ccccc2)C(=O)NCNC1=O [Primidone]
Details | concentration in plasma [ng/mL]
Rat [1] | 7700
Rat [2] | 17800
Rat [3] | 22900
Rat [4] | 10400

O=C(c1ccccc1)c1ccc(O)cc1O [2,4-Dihydroxybenzophenone]
Details | concentration in plasma [ng/mL]
Mouse [5] | 266
Mouse [6] | 1490

Rat [7]
Details | concentration in plasma [ng/mL]
3 h | 213
10 min | 128

C=C(Cl)Cl [1,1-dichloroethylene]
rat [8]
Details | concentration in expired air [ppm]
0.1527 h, 150 ppm | 5.19
0.2485 h, 150 ppm | 3.34
0.2565 h, 25 ppm | 3.35
0.3921 h, 25 ppm | 3.42
0.3921 h, 150 ppm | 3.42
0.4997 h, 150 ppm | 3.48
0.5037 h, 25 ppm | 3.48
9 s, 150 ppm | 121
88 s, 75 ppm | 12.1
205 s, 75 ppm | 6.41

rat [8], during exposure
Details | concentration in expired air [ppm]
-15 s, 75 ppm | 63.3
-2.933 h, 75 ppm | 46.2
-2.927 h, 150 ppm | 71.9
-2.926 h, 300 ppm | 190
-2.925 h, 25 ppm | 13.3
-2.861 h, 75 ppm | 48.8
-2.858 h, 25 ppm | 12.4
-2.856 h, 150 ppm | 76.7
-2.798 h, 75 ppm | 52.3
-2.794 h, 25 ppm | 14.7
-2.792 h, 150 ppm | 82.7
-2.733 h, 150 ppm | 88.4
-2.73 h, 75 ppm | 54.3
-2.726 h, 25 ppm | 15
-2.658 h, 75 ppm | 54.9
-2.654 h, 150 ppm | 93.5
-2.651 h, 25 ppm | 16.6
-2.599 h, 75 ppm | 56.2
-2.595 h, 150 ppm | 97.7
-2.591 h, 25 ppm | 17.9
-2.539 h, 75 ppm | 57.5
-2.535 h, 25 ppm | 18.9
-2.531 h, 150 ppm | 104
-2.475 h, 75 ppm | 58.8
-2.46 h, 25 ppm | 19.6
-2.456 h, 150 ppm | 107
-2.408 h, 75 ppm | 58.9
-2.4 h, 25 ppm | 19.6
-2.396 h, 150 ppm | 109
-2.336 h, 25 ppm | 20.6
-2.336 h, 75 ppm | 59.9
-2.336 h, 150 ppm | 108
-2.26 h, 75 ppm | 59.3
-2.257 h, 150 ppm | 110
-2.256 h, 25 ppm | 19.7
-2.197 h, 150 ppm | 112
-2.196 h, 75 ppm | 57.4
-2.189 h, 25 ppm | 19.7
-2.137 h, 150 ppm | 110
-2.129 h, 75 ppm | 60.6
-2.125 h, 25 ppm | 17.6
-2.061 h, 25 ppm | 20.1
-2.061 h, 75 ppm | 61
-2.058 h, 150 ppm | 111
-1.998 h, 150 ppm | 111
-1.997 h, 75 ppm | 60.7
-1.993 h, 25 ppm | 20.5
-1.858 h, 150 ppm | 111
-1.857 h, 75 ppm | 59.8
-1.854 h, 25 ppm | 20.6
-1.738 h, 75 ppm | 60.5
-1.735 h, 150 ppm | 112
-1.73 h, 25 ppm | 20.9
-1.598 h, 75 ppm | 60.6
-1.595 h, 25 ppm | 21.3
-1.595 h, 150 ppm | 113
-1.484 h, 150 ppm | 114
-1.483 h, 25 ppm | 21.4
-1.479 h, 75 ppm | 61.3
-1.344 h, 25 ppm | 21.5
-1.344 h, 150 ppm | 114
-1.343 h, 75 ppm | 60.7
-1.209 h, 150 ppm | 115
-1.208 h, 75 ppm | 60.8
-1.204 h, 25 ppm | 21.5
-1.085 h, 25 ppm | 21.9
-1.085 h, 150 ppm | 117
-1.08 h, 75 ppm | 61.2
-1 s, 25 ppm | 22.2
-0.9371 h, 25 ppm | 21.7
-0.9328 h, 75 ppm | 61.6
-0.9261 h, 150 ppm | 117
-0.8014 h, 75 ppm | 62.6
-0.7986 h, 150 ppm | 119
-0.7936 h, 25 ppm | 22.1
-0.6591 h, 150 ppm | 118
-0.6578 h, 75 ppm | 62
-0.6461 h, 25 ppm | 21.2
-0.5396 h, 150 ppm | 120
-0.5384 h, 75 ppm | 63.7
-0.5345 h, 25 ppm | 22.2
-0.399 h, 25 ppm | 22.6
-0.3988 h, 75 ppm | 63.1
-0.3961 h, 150 ppm | 119
-0.2646 h, 150 ppm | 120
-0.2633 h, 75 ppm | 63.2
-0.2555 h, 25 ppm | 22.1
-0.1359 h, 25 ppm | 22.4
-0.1358 h, 75 ppm | 63.9
-0.1331 h, 150 ppm | 121

C=CCc1ccc(OC)c(OC)c1 [Methyleugenol]
concentration in plasma [ng/mL]
Details | 5 h | 5 min | 6 h | 20 min
Rat [9] | 5.58 | – | – | 146
Rat [10] | – | 670 | 11.6 | –

CC(C)[C@]12CC(=O)[C@H](C)[C@H]1C2 [alpha-Thujone]
Details | concentration in brain [ng/g]
Rat [11] | 117
Rat [12] | 754
Rat [13] | 19.8

O=S(=O)([O-])C(F)(F)C(F)(F)C(F)(F)C(F)(F)C(F)(F)C(F)(F)F.[K+] [Perfluorohexane-1-sulphonic acid – potassium salt]
Details | concentration in kidney [ng/g]
Rat [14] | 36900
Rat [15] | 6720

c1ccncc1 [Pyridine]
Details | concentration in plasma [ng/mL]
Rat [16] | 6010
Rat [17] | 5480
Rat [18] | 1310
